Results reported in patent US8927507B2, “Selective glycosidase inhibitors and uses thereof” (priority 2011, dated 2015).

Experiments:
human O-GlcNAcase = human O-GlcNAcase (Homo sapiens (Human), UniProt O60502); experiment: Assay for determination of Ki values for inhibition of O-GlcNAcase activity (fluorescence-based hOGA); format: biochemical; conditions: purified human O-GlcNAcase 0.7 nM, 4-Methylumbelliferyl N-acetyl-β-D-glucosaminide substrate, pH 7.0, Cheng-Prusoff
Description: Experimental Procedure for Kinetic Analyses: Enzymatic reactions were carried out in a reaction containing 50 mM NaH2PO4, 100 mM NaCl and 0.1% BSA (pH 7.0) using 2 mM 4-Methylumbelliferyl N-acetyl-β-D-glucosaminide dihydrate (Sigma M2133) dissolved in ddH2O, as a substrate. The amount of purified human O-GlcNAcase enzyme used in the reaction was 0.7 nM. Test compound of varying concentrations was added to the enzyme prior to initiation of the reaction. The reaction was performed at room temperature in a 96-well plate and was initiated with the addition of substrate. The production of fluorescent product was measured every 60 sec for 45 min with a Tecan Infinite M200 plate-reader with excitation at 355 nm and emission detected at […], with 4-Methylumbelliferone (Sigma M1381) used to produce a standard curve. The slope of product production was determined for each concentration of compound tested and plotted, using standard curve fitting algorithms for sigmoidal dose response curves. The values for a four parameter logistic curve fit of the data were determined.
K1 values were determined using the Cheng-Prusoff equation; the Km of O-GlcNAcase for substrate was 0.2 mM.

O-GlcNAcase = O-GlcNAcase (Rattus norvegicus (Rat), UniProt Q8VIJ5); experiment: Cell-based ELISA of O-GlcNAcylated protein (RL-2 antibody) in PC-12 cells; conditions: rat PC-12 cells, 24 h treatment, O-GlcNAcylated protein detected with RL-2 antibody
From the text: Inhibition of O-GlcNAcase, which removes O-GlcNAc from cellular proteins, results in an increase in the level of O-GlcNAcylated protein in cells. An increase in O-GlcNAcylated protein can be measured by an antibody, such as RL-2, that binds to O-GlcNAcylated protein. The amount of O-GlcNAcylated protein:RL2 antibody interaction can be measured by enzyme linked immunosorbant assay (ELISA) procedures.
A variety of tissue culture cell lines, expressing endogenous levels of O-GlcNAcase, can be utilized; examples include rat PC-12, and human U-87, or SK-N-SH cells. In this assay, rat PC-12 cells were plated in 96-well plates with approximately 10,000 cells/well. […] If desired, the total protein concentration of samples was determined using 20 μl of the sample using the BCA method.
The ELISA portion of the assay was performed in a black Maxisorp 96-well plate that was coated overnight at 4° C. with 100 μL/well of the cell lysate (1:10 dilution of the lysate with PBS containing protease inhibitors, phosphatase inhibitors, and PMSF). […] The detection reaction was incubated for 15 minutes at room temperature and then read with excitation at 530 nm and emission at 590 nm.
The amount of O-GlcNAcylated protein, as detected by the ELISA assay, was plotted for each concentration of test compound using standard curve fitting algorithms for sigmoidal dose response curves. […]

Sequence of human O-GlcNAcase (O60502 whole entry): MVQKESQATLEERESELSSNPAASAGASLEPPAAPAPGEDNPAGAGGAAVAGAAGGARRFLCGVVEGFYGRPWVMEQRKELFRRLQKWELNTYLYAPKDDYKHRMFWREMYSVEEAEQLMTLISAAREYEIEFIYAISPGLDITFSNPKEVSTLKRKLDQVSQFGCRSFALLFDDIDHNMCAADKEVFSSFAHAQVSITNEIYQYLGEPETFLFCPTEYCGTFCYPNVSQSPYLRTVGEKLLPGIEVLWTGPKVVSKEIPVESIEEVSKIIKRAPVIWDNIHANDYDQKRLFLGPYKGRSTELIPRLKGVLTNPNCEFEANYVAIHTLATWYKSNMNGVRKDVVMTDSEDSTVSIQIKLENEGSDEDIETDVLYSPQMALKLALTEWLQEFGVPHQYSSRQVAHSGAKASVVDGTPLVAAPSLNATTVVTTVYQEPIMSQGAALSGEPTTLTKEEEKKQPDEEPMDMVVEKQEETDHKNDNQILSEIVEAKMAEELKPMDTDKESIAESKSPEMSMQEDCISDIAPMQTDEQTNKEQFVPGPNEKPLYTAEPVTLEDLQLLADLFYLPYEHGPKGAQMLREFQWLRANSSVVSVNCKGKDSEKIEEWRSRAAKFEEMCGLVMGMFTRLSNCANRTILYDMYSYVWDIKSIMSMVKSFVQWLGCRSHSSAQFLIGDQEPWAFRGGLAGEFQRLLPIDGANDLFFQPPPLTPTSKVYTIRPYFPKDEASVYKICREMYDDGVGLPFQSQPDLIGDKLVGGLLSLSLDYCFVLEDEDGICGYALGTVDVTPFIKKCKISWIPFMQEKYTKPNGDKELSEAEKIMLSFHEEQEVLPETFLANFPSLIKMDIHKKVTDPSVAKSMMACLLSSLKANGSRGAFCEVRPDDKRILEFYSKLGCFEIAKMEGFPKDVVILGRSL
Sequence of O-GlcNAcase (Q8VIJ5 whole entry): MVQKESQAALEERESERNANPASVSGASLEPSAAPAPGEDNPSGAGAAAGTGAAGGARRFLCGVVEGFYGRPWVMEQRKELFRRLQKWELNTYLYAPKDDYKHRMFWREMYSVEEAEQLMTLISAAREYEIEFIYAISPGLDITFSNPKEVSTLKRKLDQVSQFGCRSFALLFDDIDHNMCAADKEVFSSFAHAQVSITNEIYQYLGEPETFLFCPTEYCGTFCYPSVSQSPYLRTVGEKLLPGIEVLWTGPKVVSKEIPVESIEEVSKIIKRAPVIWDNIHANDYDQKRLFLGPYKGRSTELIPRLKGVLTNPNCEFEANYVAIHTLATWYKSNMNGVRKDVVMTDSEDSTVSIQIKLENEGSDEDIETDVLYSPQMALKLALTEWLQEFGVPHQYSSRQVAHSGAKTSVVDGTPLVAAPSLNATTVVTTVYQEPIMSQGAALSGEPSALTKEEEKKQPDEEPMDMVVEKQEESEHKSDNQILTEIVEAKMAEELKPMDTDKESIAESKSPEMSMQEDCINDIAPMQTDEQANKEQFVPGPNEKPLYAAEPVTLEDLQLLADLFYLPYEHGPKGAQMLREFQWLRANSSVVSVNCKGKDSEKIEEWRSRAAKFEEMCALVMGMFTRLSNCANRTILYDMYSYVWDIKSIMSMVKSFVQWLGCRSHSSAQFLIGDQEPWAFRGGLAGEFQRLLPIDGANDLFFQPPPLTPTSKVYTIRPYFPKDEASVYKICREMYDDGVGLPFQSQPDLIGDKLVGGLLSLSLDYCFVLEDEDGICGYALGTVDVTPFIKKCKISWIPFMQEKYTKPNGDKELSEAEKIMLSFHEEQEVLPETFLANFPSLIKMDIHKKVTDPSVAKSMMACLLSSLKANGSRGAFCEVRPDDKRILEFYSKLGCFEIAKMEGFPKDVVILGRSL

SMILES	Ki (human O-GlcNAcase) [nM]	EC50 (O-GlcNAcase) [nM]
CCNC(=O)NC1=N[C@@H]2[C@@H](O)[C@H](O)[C@@H](CO)O[C@@H]2S1 [Example 29, 1-((3aR,5R,6S,7R,7aR)-6,7-dihydroxy-5-(hydroxymethyl)-5,6,7,7a-tetrahydro-3aH-pyrano[3,2-d]thiazol-2-yl)-3-ethylurea]	22	–
C=CCN(C)C1=N[C@@H]2[C@@H](O)[C@H](O)[C@@H](CO)O[C@@H]2S1 [Example 16, (3aR,5R,6S,7R,7aR)-2-(allyl(methyl)amino)-5-(hydroxymethyl)-5,6,7,7a-tetrahydro-3aH-pyrano[3,2-d]thiazole-6,7-diol]	2.8	152
CCCN(C)C1=N[C@@H]2[C@@H](O)[C@H](O)[C@@H](CO)O[C@@H]2S1 [Example 15, (3aR,5R,6S,7R,7aR)-5-(hydroxymethyl)-2-(methyl(propyl)amino)-5,6,7,7a-tetrahydro-3aH-pyrano[3,2-d]thiazole-6,7-diol]	15	196
CON(C)C1=N[C@@H]2[C@@H](O)[C@H](O)[C@@H](CO)O[C@@H]2S1 [Example 18, (3aR,5R,6S,7R,7aR)-5-(hydroxymethyl)-2-(methoxy(methyl)amino)-5,6,7,7a-tetrahydro-3aH-pyrano[3,2-d]thiazole-6,7-diol]	11	–

More lines, now with the values ahead:

Ki (human O-GlcNAcase) [nM]	EC50 (O-GlcNAcase) [nM]	SMILES
74	–	CCC(=O)NC1=N[C@@H]2[C@@H](O)[C@H](O)[C@@H](CO)O[C@@H]2S1 [Example 22, N-((3aR,5R,6S,7R,7aR)-6,7-dihydroxy-5-(hydroxymethyl)-5,6,7,7a-tetrahydro-3aH-pyrano[3,2-d]thiazol-2-yl)propionamide]
15	–	OC[C@H]1O[C@@H]2SC(NCCCF)=N[C@@H]2[C@@H](O)[C@@H]1O [Example 2, (3aR,5R,6S,7R,7aR)-2-((3-fluoropropyl)amino)-5-(hydroxymethyl)-5,6,7,7a-tetrahydro-3aH-pyrano[3,2-d]thiazole-6,7-diol]
15	–	OC[C@H]1O[C@@H]2SC(NCC3CC3)=N[C@@H]2[C@@H](O)[C@@H]1O [Example 11, (3aR,5R,6S,7R,7aR)-2-((cyclopropylmethyl)amino)-5-(hydroxymethyl)-5,6,7,7a-tetrahydro-3aH-pyrano[3,2-d]thiazole-6,7-diol]
4.4	–	OC[C@H]1O[C@@H]2SC(NCCC3CC3)=N[C@@H]2[C@@H](O)[C@@H]1O [Example 3, (3aR,5R,6S,7R,7aR)-2-(2-Cyclopropylethylamino)-5-(hydroxymethyl)-5,6,7,7a-tetrahydro-3aH-pyrano[3,2-d]thiazole-6,7-diol]
